Patent publication US12077503B2, “Substituted cyclic amides and their use as herbicides” (FMC CORPORATION, priority 2015, dated 2024)

Legend:
Format in all cases: in vivo
[1] = test system: pigweed (Amaranthus retroflexus); assay: Test A postemergence; conditions: Amaranthus retroflexus, post-emergence, 240 h
Procedure, shortened: (§1)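 Visual injury, scored on a 0–100 scale relative to untreated controls, was recorded about 10 d after application. Treatments were a preemergence soil spray over planted seeds or a postemergence spray on plants at the one- to two-leaf stage, 2 to 10 cm tall, all in loam soil–sand blend in the greenhouse.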

Kochia (Kochia scoparia) [2] = assay: Test A postemergence; conditions: Bassia scoparia, post-emergence, 240 h
Procedure, shortened: as §1

[3] = test system: blackgrass (Alopecurus myosuroides); assay: Test A postemergence; conditions: Alopecurus myosuroides, post-emergence, 240 h
Procedure, shortened: as §1

[4] = test system: giant foxtail (Setaria faberii); assay: Test A postemergence; conditions: Setaria faberi, post-emergence, 240 h
Procedure, shortened: as §1

[5] = test system: ragweed (common ragweed, Ambrosia elatior); assay: Test A postemergence; conditions: Ambrosia artemisiifolia, post-emergence, 240 h
Procedure, shortened: as §1

[6] = test system: wheat (Triticum aestivum); assay: Test A postemergence; conditions: Triticum aestivum, post-emergence, 240 h
Procedure, shortened: as §1

[7] = test system: ryegrass, Italian (Italian ryegrass, Lolium multiflorum); assay: Test A postemergence; conditions: Lolium multiflorum, post-emergence, 240 h
Procedure, shortened: as §1

corn (Zea mays) = assay: Test A postemergence; conditions: Zea mays, post-emergence, 240 h
Procedure, shortened: as §1

[8] = test system: barnyardgrass (Echinochloa crus-galli); assay: Test A postemergence; conditions: Echinochloa crus-galli, post-emergence, 240 h
Procedure, shortened: as §1

[9] = test system: pigweed (Amaranthus retroflexus); assay: Test A preemergence; conditions: Amaranthus retroflexus, pre-emergence, 240 h, 0 to 100 scale where 0 is no effect and 100 is complete control, read-out: Pigweed plant response rating
Kochia (Kochia scoparia) [10] = assay: Test A preemergence; conditions: Bassia scoparia, pre-emergence, 240 h, 0 to 100 scale where 0 is no effect and 100 is complete control, read-out: Kochia plant response rating
Procedure, shortened: as §1

[11] = test system: giant foxtail (Setaria faberii); assay: Test A preemergence; conditions: Setaria faberi, pre-emergence, 240 h, 0 to 100 scale where 0 is no effect and 100 is complete control, read-out: Foxtail, Giant plant response rating
Procedure, shortened: as §1

[12] = test system: ragweed (common ragweed, Ambrosia elatior); assay: Test A preemergence; conditions: Ambrosia artemisiifolia, pre-emergence, 240 h, 0 to 100 scale where 0 is no effect and 100 is complete control, read-out: Ragweed plant response rating
Procedure, shortened: as §1

[13] = test system: ryegrass, Italian (Italian ryegrass, Lolium multiflorum); assay: Test A preemergence; conditions: Lolium multiflorum, pre-emergence, 240 h, 0 to 100 scale where 0 is no effect and 100 is complete control, read-out: Ryegrass, Italian plant response rating
Procedure, shortened: as §1

[14] = test system: barnyardgrass (Echinochloa crus-galli); assay: Test A preemergence; conditions: Echinochloa crus-galli, pre-emergence, 240 h, 0 to 100 scale where 0 is no effect and 100 is complete control, read-out: Barnyardgrass plant response rating
Procedure, shortened: as §1

[15] = test system: ducksalad (Heteranthera limosa); assay: Test B flooded paddy test; conditions: Heteranthera limosa, 250 g ai/ha, Flood; 0 to 100 scale where 0 is no effect and 100 is complete control; read-out: Ducksalad plant response rating
Procedure, shortened: (§2)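 Percent control, visually estimated after 13–15 d in the greenhouse on a 0–100 basis, compares treated pots with untreated ones; compound was put into paddy water 3 cm above the soil when plants had two leaves.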

[16] = test system: sedge, umbrella (small-flower umbrella sedge, Cyperus difformis); assay: Test B flooded paddy test; conditions: Cyperus difformis, 250 g ai/ha, Flood; 0 to 100 scale where 0 is no effect and 100 is complete control; read-out: Sedge, Umbrella plant response rating
Procedure, shortened: as §2

rice (Oryra sativa) = assay: Test B flooded paddy test; conditions: Oryza sativa, 250 g ai/ha, Flood; 0 to 100 scale where 0 is no effect and 100 is complete control; read-out: Rice plant response rating
Procedure, shortened: as §2

[17] = test system: barnyardgrass (Echinochloa crus-galli); assay: Test B flooded paddy test; conditions: Echinochloa crus-galli, 250 g ai/ha, Flood; 0 to 100 scale where 0 is no effect and 100 is complete control; read-out: Barnyardgrass plant response rating
Procedure, shortened: as §2

[18] = 125 g ai/ha, preemergence, approx. 10 d

Molecule `CC(C)Oc1cc([C@H]2CN(C)C(=O)[C@@H]2C(=O)Nc2cccc(F)c2F)ccc1F` [Compound 1075] has a pest or weed control at 125 g/ha ([1]; 125 g ai/ha, postemergence, visual injury on 0 to 100 scale (0 no effect, 100 complete control), approx. 10 d, read-out: Pigweed plant response rating) of 0%, a pest or weed control at 31 g/ha ([1]; Postemergence, 31 g ai/ha, visual injury after approx. 10 d, 0 to 100 scale, 0 no effect, 100 complete control, read-out: Plant response rating, Pigweed) of 0% and a pest or weed control at 125 g/ha (Kochia (Kochia scoparia) [2]; 125 g ai/ha, postemergence, visual injury on 0 to 100 scale (0 no effect, 100 complete control), approx. 10 d, read-out: Kochia plant response rating) of 30%. It also gave a pest or weed control at 31 g/ha (Kochia (Kochia scoparia) [2]; Postemergence, 31 g ai/ha, visual injury after approx. 10 d, 0 to 100 scale, 0 no effect, 100 complete control, read-out: Plant response rating, Kochia) of 30%, a pest or weed control at 125 g/ha ([3]; 125 g ai/ha, postemergence, visual injury on 0 to 100 scale (0 no effect, 100 complete control), approx. 10 d, read-out: Blackgrass plant response rating) of 50% and a pest or weed control at 31 g/ha ([3]; Postemergence, 31 g ai/ha, visual injury after approx. 10 d, 0 to 100 scale, 0 no effect, 100 complete control, read-out: Plant response rating, Blackgrass) of 40%. It also gave a pest or weed control at 125 g/ha ([4]; 125 g ai/ha, postemergence, visual injury on 0 to 100 scale (0 no effect, 100 complete control), approx. 10 d, read-out: Foxtail, Giant plant response rating) of 90%, a pest or weed control at 31 g/ha ([4]; Postemergence, 31 g ai/ha, visual injury after approx. 10 d, 0 to 100 scale, 0 no effect, 100 complete control, read-out: Plant response rating, Foxtail, Giant) of 80% and a pest or weed control at 125 g/ha ([5]; 125 g ai/ha, postemergence, visual injury on 0 to 100 scale (0 no effect, 100 complete control), approx. 10 d, read-out: Ragweed plant response rating) of 40%. The pest or weed control at 31 g/ha ([5]; Postemergence, 31 g ai/ha, visual injury after approx. 10 d, 0 to 100 scale, 0 no effect, 100 complete control, read-out: Plant response rating, Ragweed) was 0%, the plant injury at 125 g/ha ([6]; 125 g ai/ha, postemergence, visual injury on 0 to 100 scale (0 no effect, 100 complete control), approx. 10 d, read-out: Wheat plant response rating) was 60% and the plant injury at 31 g/ha ([6]; Postemergence, 31 g ai/ha, visual injury after approx. 10 d, 0 to 100 scale, 0 no effect, 100 complete control, read-out: Plant response rating, Wheat) was 0%. The pest or weed control at 125 g/ha ([7]; 125 g ai/ha, postemergence, visual injury on 0 to 100 scale (0 no effect, 100 complete control), approx. 10 d, read-out: Ryegrass, Italian plant response rating) was 70%, the pest or weed control at 31 g/ha ([7]; Postemergence, 31 g ai/ha, visual injury after approx. 10 d, 0 to 100 scale, 0 no effect, 100 complete control, read-out: Plant response rating, Ryegrass, Italian) was 0% and the plant injury at 125 g/ha (corn (Zea mays); 125 g ai/ha, postemergence, visual injury on 0 to 100 scale (0 no effect, 100 complete control), approx. 10 d, read-out: Corn plant response rating) was 70%. For the same molecule, the Corn plant response rating (crop injury, 0 = no effect, 100 = complete kill) at 31 g/ha (corn (Zea mays); Postemergence, 31 g ai/ha, visual injury after approx. 10 d, 0 to 100 scale, 0 no effect, 100 complete control) was 20%, the pest or weed control at 125 g/ha ([8]; 125 g ai/ha, postemergence, visual injury on 0 to 100 scale (0 no effect, 100 complete control), approx. 10 d, read-out: Barnyardgrass plant response rating) was 90% and the pest or weed control at 31 g/ha ([8]; Postemergence, 31 g ai/ha, visual injury after approx. 10 d, 0 to 100 scale, 0 no effect, 100 complete control, read-out: Plant response rating, Barnyardgrass) was 90%. For the same molecule, the pest or weed control at 31 g/ha ([9]; 31 g ai/ha, Preemergence) was 0%, the pest or weed control at 125 g/ha [9, 18] was 20% and the pest or weed control at 31 g/ha (Kochia (Kochia scoparia) [10]; 31 g ai/ha, Preemergence) was 0%. It also gave a pest or weed control at 125 g/ha (Kochia (Kochia scoparia) [10]; [18]) of 30%, a pest or weed control at 31 g/ha ([11]; 31 g ai/ha, Preemergence) of 100% and a pest or weed control at 125 g/ha [11, 18] of 100%. The pest or weed control at 31 g/ha ([12]; 31 g ai/ha, Preemergence) was 30%, the pest or weed control at 125 g/ha [12, 18] was 20% and the pest or weed control at 31 g/ha ([13]; 31 g ai/ha, Preemergence) was 50%. The pest or weed control at 125 g/ha [13, 18] was 80%, the pest or weed control at 31 g/ha ([14]; 31 g ai/ha, Preemergence) was 100% and the pest or weed control at 125 g/ha [14, 18] was 100%. The pest or weed control at 250 g/ha [15] was 100%, the pest or weed control at 250 g/ha [16] was 0% and the pest or weed control at 250 g/ha (rice (Oryra sativa)) was 35%. For the same molecule, the pest or weed control at 250 g/ha [17] was 75%.
